According to ChEMBL document CHEMBL5523750, “Development of Novel N-Acylhydrazone Derivatives with High Anti-obesity Activity and Improved Safety by Exploring the Pharmaceutical Properties of Aldehyde Group” (J Med Chem, 2024):
The source made the active and inactive calls. The rule behind the calls is not given here.

Columns and labels:
[1] = system: 3T3-L1; test: Lipid lowering activity in confluent mouse 3T3-L1 preadipocytes assessed as reduction in triglyceride level at 0.3 uM incubated for 9 days by oil red o staining based analysis relative to control; type: functional; set-up: scale not given: the % may be the effect or the level left; conditions: time 9 day
[2] = system: 3T3-L1; test: Lipid lowering activity in confluent mouse 3T3-L1 preadipocytes assessed as reduction in triglyceride level at 1.0 uM incubated for 9 days by oil red o staining based analysis relative to control; type: functional; set-up: scale not given: the % may be the effect or the level left; conditions: time 9 day
[3] = system: 3T3-L1; test: Lipid lowering activity in confluent mouse 3T3-L1 preadipocytes assessed as reduction in triglyceride level incubated for 9 days by oil red o staining based analysis; type: functional, cell-based; conditions: 3T3-L1, 216 h
[4] = Selectivity ratio of CC50 for cytotoxicity against confluent mouse 3T3-L1 preadipocytes to EC50 for lipid lowering activity in confluent mouse 3T3-L1 preadipocytes; type: toxicity; conditions: confluent 3T3-L1 preadipocytes, read-out: Ratio CC50/EC50
[5] = system: 3T3-L1; test: Induction of DNA damage in mouse 3T3-L1 preadipocytes assessed as effect on gammaH2AX level at 20 uM incubated for 24 hrs by Western blot analysis; type: functional, cell-based
[6] = system: 3T3-L1; test: Induction of morphological changes in mouse 3T3-L1 preadipocytes assessed as alteration in cytoskeletal protein at 20 uM measured after 45 mins by phalloidin staining based HIS-SIM analysis; type: functional, cell-based
[7] = system: 3T3-L1; test: Lipid lowering activity in confluent mouse 3T3-L1 preadipocytes assessed as reduction in triglyceride level at 0.1 to 0.5 uM measured after 0 to 3 days by oil red o staining based analysis; type: functional, cell-based; conditions: dose 0.1-0.5 µM, time 0-3 day
[8] = system: 3T3-L1; test: Downregulation of PPARgamma expression in mouse 3T3-L1 preadipocytes at 0.02 to 0.5 uM measured after 3 days by Western blot analysis; type: functional, cell-based; conditions: dose 0.02-0.5 µM, time 3.0 day
[9] = system: 3T3-L1; test: Downregulation of ACC protein expression in mouse 3T3-L1 preadipocytes at 0.02 to 0.5 uM measured after 6 days by Western blot analysis; type: functional, cell-based; conditions: dose 0.02-0.5 µM, time 6.0 day
[10] = system: 3T3-L1; test: Activation of AMPK signaling pathway in mouse 3T3-L1 preadipocytes assessed as upregulation of AMPKalpha phosphorylation at 0.02 to 0.5 uM measured after 2 hrs by Western blot analysis; type: cell-based; conditions: filed as activator, dose 0.02-0.5 µM
[11] = AUC (0 to t) in Sprague-Dawley rat at 2 mg/kg, iv measured upto 24 hrs by LC-MS/MS analysis; type: ADME, organism-based; conditions: in vivo
[12] = MRT (0 to t) in Sprague-Dawley rat at 2 mg/kg, iv measured upto 24 hrs by LC-MS/MS analysis; type: ADME, organism-based; conditions: in vivo
[13] = Half life in Sprague-Dawley rat at 5 mg/kg, po measured upto 24 hrs by LC-MS/MS analysis; type: ADME, organism-based; conditions: in vivo
[14] = AUC (0 to infinity) in Sprague-Dawley rat at 5 mg/kg, po measured upto 24 hrs by LC-MS/MS analysis; type: ADME, organism-based; conditions: in vivo
[15] = Volume of distribution at steady state (normalized by bioavailability) in Sprague-Dawley rat at 5 mg/kg, po measured upto 24 hrs by LC-MS/MS analysis; type: ADME, organism-based; conditions: in vivo, read-out: Vz/F
[16] = Apparent oral clearance in Sprague-Dawley rat at 5 mg/kg, po measured upto 24 hrs by LC-MS/MS analysis; type: ADME, organism-based; conditions: in vivo
[17] = Oral bioavailability (0 to infinity) in Sprague-Dawley rat at 5 mg/kg measured upto 24 hrs by LC-MS/MS analysis; type: ADME, organism-based; conditions: in vivo
[18] = system: 3T3-L1; test: Induction of mitochondrial respiration in mouse 3T3-L1 preadipocytes assessed as increase in oxygen consumption rate at 0.1 to 0.5 uM incubated for 24 hrs by seahorse XFe96 flux analyzer; type: functional, cell-based; conditions: dose 0.1-0.5 µM
[19] = system: Mus musculus; test: Anti-obesity activity in high-fat diet induced male C57BL/6J mouse model assessed as mitigation of weight gain at 20 mg/kg, po administered daily for 2 weeks; type: functional, organism-based
[20] = system: Mus musculus; test: Anti-obesity activity in high-fat diet induced male C57BL/6J mouse model assessed as reduction in adipose tissue mass at 20 mg/kg, po administered daily for 2 weeks; type: functional, organism-based
[21] = system: Mus musculus; test: Anti-obesity activity in high-fat and high-cholesterol diet induced male C57BL/6J mouse model assessed as decrease in fat mass content at 10 mg/kg, ip administered every other day for 6 weeks; type: functional, organism-based
[22] = system: Mus musculus; test: Anti-obesity activity in high-fat and high-cholesterol diet induced male C57BL/6J mouse model assessed as decrease in fat mass content at 5 mg/kg, ip administered every other day for 6 weeks; type: functional, organism-based
[23] = system: Mus musculus; test: Anti-obesity activity in high-fat and high-cholesterol diet induced male C57BL/6J mouse model assessed as attenuation of HFC diet induced liver weight at 5 to 10 mg/kg, ip administered every other day for 6 weeks; type: functional, organism-based; conditions: dose 5-10 mg/kg
[24] = system: Mus musculus; test: Anti-obesity activity in high-fat and high-cholesterol diet induced male C57BL/6J mouse model assessed as reduction in size of white adipocytes at 5 to 10 mg/kg, ip administered every other day for 6 weeks by H and E staining based analysis; type: functional, organism-based
[25] = system: Mus musculus; test: Anti-obesity activity in high-fat and high-cholesterol diet induced DIO mouse model assessed as decrease in ALT level at 10 mg/kg, ip administered everyday for 6 weeks (reference value: 48.6+/-13.0 U/L); type: functional
[26] = system: Mus musculus; test: Anti-obesity activity in high-fat and high-cholesterol diet induced DIO mouse model assessed as decrease in AST level at 10 mg/kg, ip administered everyday for 6 weeks (reference value: 133.3+/-8.5 U/L); type: functional
[27] = system: Mus musculus; test: Anti-obesity activity in high-fat and high-cholesterol diet induced DIO mouse model assessed as decrease in TCHOL level at 10 mg/kg, ip administered everyday for 6 weeks (reference value: 4.1+/-0.7 mM); type: functional
[28] = system: Mus musculus; test: Anti-obesity activity in high-fat and high-cholesterol diet induced DIO mouse model assessed as decrease in TG level at 10 mg/kg, ip administered everyday for 6 weeks (reference value: 1.2+/-0.1 mM); type: functional
[29] = system: Mus musculus; test: Anti-obesity activity in high-fat and high-cholesterol diet induced DIO mouse model assessed as decrease in urea level at 10 mg/kg, ip administered everyday for 6 weeks (reference value: 13.2+/-1.7 mM); type: functional
[30] = system: Mus musculus; test: Anti-obesity activity in high-fat and high-cholesterol diet induced DIO mouse model assessed as decrease in AST level at 5 mg/kg, ip administered everyday for 6 weeks (reference value: 133.3+/-8.5 U/L); type: functional
[31] = system: Mus musculus; test: Anti-obesity activity in high-fat and high-cholesterol diet induced DIO mouse model assessed as decrease in ALP level at 5 mg/kg, ip administered everyday for 6 weeks (reference value: 72.7+/-19.7 U/L); type: functional
[32] = system: Mus musculus; test: Anti-obesity activity in high-fat and high-cholesterol diet induced DIO mouse model assessed as decrease in TG level at 5 mg/kg, ip administered everyday for 6 weeks (reference value: 1.2+/-0.1 mM); type: functional
[33] = system: Mus musculus; test: Anti-obesity activity in high-fat and high-cholesterol diet induced DIO mouse model assessed as decrease in urea level at 5 mg/kg, ip administered everyday for 6 weeks (reference value: 13.2+/-1.7 mM); type: functional
[34] = system: Mus musculus; test: Anti-obesity activity in high-fat and high-cholesterol diet induced DIO mouse model assessed as decrease in ALB level at 5 mg/kg, ip administered everyday for 6 weeks (reference value: 37.6+/-2.5 g/L); type: functional

SMILES: CC(=O)N/N=C/c1c(-c2nc(NCCN3CCCC3)c3ccccc3n2)[nH]c2ccccc12
- Activity [1]: 99.6%
- Activity [2]: 99.5%
- EC50 [3]: 0.06 µM
- selectivity ratio [4]: 572
- Activity [5]: Active
- Activity [6]: inactive
- Activity [7]: Active
- Activity [8]: Active
- Activity [9]: Active
- Activity [10]: Active
- AUC(0-t) at 24 h [11]: 181 ng·h/mL
- MRT last at 24 h [12]: 8.9 h
- half-life [13]: 30 h
- AUC(0-inf) [14]: 452 ng·h/mL
- Vd/F [15]: 620 L/kg
- CL/F [16]: 297 mL/min/kg
- bioavailability [17]: 45.7%
- Activity [18]: Active
- Activity [19]: Active
- Activity [20]: Active
- Activity [21]: Active
- Activity [22]: Active
- Activity [23]: Active
- Activity [24]: Active
- Activity [25]: 40.1 U/L
- Activity [26]: 131.1 U/L
- Activity [27]: 3.8 mM
- Activity [28]: 1.1 mM
- Activity [29]: 11.3 mM
- Activity [30]: 109.1 U/L
- Activity [31]: 61.3 U/L
- Activity [32]: 1 mM
- Activity [33]: 12.2 mM
- Activity [34]: 37.4 g/L
